Results from patent US20230129485A1, “SYSTEM AND METHOD FOR DETERMINING MATERIAL PROPERTIES OF MOLECULAR SYSTEMS FROM AN AB-INITIO PARAMETERIZED FORCE-FIELD” (InterX, Inc., priority 2021, published 2023).
Where two headings read alike, the source gives them in different places.

Columns and labels:
[1] = Free energy of hydration predicted with the QM-parameterized force field model (ARROW FF), classical MD and PIMD simulation in a water box; conditions: for Arrow PIMD8 Error: absolute error vs Exp (hydration); for Arrow error: Table 5, error of Arrow PIMD8 hydration free energy vs experiment
Summary of the method: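 Classical and PIMD runs (MTS integrator, MTTK barostat at 1 atm) followed minimization and 50 ps equilibration, with 1 ns NPT production per window. Fifteen unequally spaced lambda windows removed all solute-solvent interactions simultaneously in a 32 Å water box. Hydration free energy computed by Bennett acceptance ratio and thermodynamic integration.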

[2] = CHEX/H2O partition coefficient (log D) predicted with the QM-parameterized force field model (ARROW FF)
Summary of the method: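 Cyclohexane/water partition coefficients were predicted by molecular simulation with a QM-parameterized force field, with bonded force constants and equilibrium values fitted to MP2/aug-cc-pVTZ energies. Solutes carried neutral functional groups, and results from four independent groups were averaged.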

[3] = Bulk solvent properties (density, heat of vaporization, self-solvation) predicted with the QM-parameterized force field model (AFF MD / PIMD)
From the text: Particle-Mesh Ewald (PME) algorithm was used to compute the electrostatic interactions. A 32×32×32 grid mesh and 5th power spline interpolation order can be used to compute the inverse PME sum. 9 Å cutoffs were used to compute the direct PME sum as well as the exchange and dispersion interactions. Bulk corrections were applied to account for distance cut-off of dispersion interactions. Solvation free energies were computed by decoupling the interactions between the solute and the solvent molecules. Electrostatic, exchange-repulsion and dispersion interactions were switched off simultaneously using a lambda-dependent scaling (a scaling factor power=2 was used) and a soft-coring algorithm (maximal soft-coring radius=1.5 Å, soft-coring radius scaling factor power=1). 15 lambda points unequally spaced (X=0, 0.05, 0.1, 0.2, 0.3, 0.4, 0.5, 0.6, 0.7, 0.75, 0.8, 0.85, 0.9, 0.95, 1.0) were used to decouple the solute-solvent intermolecular interactions.
In some simulations of the QM-parameterized force field molecular simulation process, energy minimization (10,000 steps) using the steepest descent algorithm was initially performed on all the simulation systems. This was followed by a 50 ps equilibration and 1 ns production runs in the isothermal-isobaric ensemble (NPT). […] Pressure was maintained at 1 atm using a MTTK barostat (relaxation time=5 ps). […]

[4] = Free energy of hydration by COSMO implicit solvent model (MolPro ver. 2012); conditions: absolute error vs Exp (hydration)
Summary of the method: (§1)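 Computed, not measured. COSMO: run in MolPro on the dataset. SMD/PCM: predicted values supplied externally. SMD, PCM, COSMO-RS restricted to the overlap with the QM-parameterized force field molecule set.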

[5] = Free energy of hydration by Solvation Model Dielectric (SMD) implicit solvent model; conditions: absolute error vs Exp (hydration)
Summary of the method: as §1

[6] = Free energy of hydration by Polarizable Continuum Model (PCM); conditions: absolute error vs Exp (hydration)
Summary of the method: as §1

[7] = Free energy of hydration by COSMO-RS
Summary of the method: as §1

[8] = experimental, cited from earlier work; for Exp (hydration): Table 5
[9] = experimental, cited from earlier work
[10] = experimental; cited from earlier work
[11] = implicit solvent model, values received; cited from earlier work
[12] = implicit solvent model, values received; cited from earlier work; remark: listed apart in the source
[13] = CHEX/H2O partition coefficient, experimental, cited from earlier work; for Exp (log D): Table 3; for logD Exp (logD): Table 4
[14] = Free energy of solvation in cyclohexane predicted with the QM-parameterized force field model (ARROW FF), MD and PIMD; conditions: Table 4; for CHEX Arrow MD Error: error of MD cyclohexane solvation free energy vs experiment; for CHEX Arrow PIMD4 Error: error of PIMD4 cyclohexane solvation free energy vs experiment
Summary of the method: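 Solute–cyclohexane interactions decoupled over 15 λ points with soft-core scaling, in MD and path-integral simulations under NPT at 1 atm using PME electrostatics and 9 Å cutoffs. Each window had 50 ps equilibration and 1 ns production; free energies from BAR and TI.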

[15] = Free energy of hydration predicted by General Amber Force Field (GAFF), from literature; conditions: Table 5; error of GAFF hydration free energy vs experiment
[16] = Free energy of hydration predicted by polarizable AMOEBA force field, from literature; conditions: Table 5; error of AMOEBA hydration free energy vs experiment
[17] = Free energy of hydration by Free Energy Machine Learning Model (FML); conditions: absolute error vs Exp (hydration)
From the text: Machine learning models can be used for free energy determination.

[18] = Table 5; free energy of hydration, GAFF prediction taken from literature; cited from earlier work
[19] = Table 5; free energy of hydration, AMOEBA prediction taken from literature; cited from earlier work
[20] = Table 3, absolute error of MD hydration free energy vs experiment
[21] = Table 3, absolute error of PIMD8 hydration free energy vs experiment
[22] = Table 3, free energy of hydration
[23] = Table 3, free energy of solvation in cyclohexane
[24] = Table 4, error of MD hydration free energy vs experiment
[25] = Table 4, error of PIMD8 hydration free energy vs experiment
[26] = Table 4, neutral amino-acid analogues
[27] = Table 4, solvation free energy in cyclohexane

| SMILES | water Arrow MD Error [1, 20] [kcal/mol] | water Arrow PIMD8 Error [1, 21] [kcal/mol] | Arrow PIMD8 Error [1] [kcal/mol] | log D Arrow MD Error [2] | log D Arrow PIMD Error [2] | COSMO/Molpro Error [4] [kcal/mol] | SMD Error [5] [kcal/mol] | PCM Error [6] [kcal/mol] | COSMO-RS error [7] [kcal/mol] | water Exp (hydration) [8, 22] [kcal/mol] | CHEX Exp (solvation) [9, 23] [kcal/mol] | SMD free energy of hydration [11] [kcal/mol] | PCM free energy of hydration [12] [kcal/mol] | Exp (log D) [13] | Arrow error [1] [kcal/mol] | GAFF error [15] [kcal/mol] | AMOEBA error [16] [kcal/mol] | Exp (hydration) ([8]; free energy of hydration) [kcal/mol] | GAFF [18] [kcal/mol] | AMOEBA [19] [kcal/mol] | further results |
| --- | --- | --- | --- | --- | --- | --- | --- | --- | --- | --- | --- | --- | --- | --- | --- | --- | --- | --- | --- | --- | --- |
| C1CCCCC1 [Cyclohexane] | 1.03 | 0.10 | 0.10 | 0.89 | 0.36 | 1.71 | 0.17 | 1.33 | 0.10 | 1.23 | -4.42 | 1.40 | -0.10 | 4.14 |  |  |  |  |  |  | agreement of bulk energetics ([3]; within chemical accuracy): ≤ 0.5 kcal/mol; Hydration [8]: 1.20 kcal/mol; Density [10]: 0.790 g/cc; Hvap [10]: 7.91 kcal/mol; self-solvation [10]: -4.42 kcal/mol |
| C [Methane] | 0.32 | 0.09 | 0.09 | 0.25 | 0.09 | 2.35 | 0.24 | 2.06 | 0.20 | 1.96 | 0.14 | 2.20 | -0.10 | 1.33 | 0.09 | 0.24 | 0.23 | 1.96 | 2.20 | 1.73 | water Arrow MD Error [1, 24]: 0.32 kcal/mol; water Arrow PIMD8 Error [1, 25]: 0.09 kcal/mol; CHEX Arrow MD Error [14]: 0.01 kcal/mol; CHEX Arrow PIMD4 Error [14]: 0.04 kcal/mol; logD Arrow MD Error [2]: 0.25; logD Arrow PIMD Error [2]: 0.09; FML error [17]: 1.59 kcal/mol; water Exp (hydration) [8, 26]: 1.96 kcal/mol; CHEX Exp (solvation) [9, 27]: 0.14 kcal/mol; logD Exp (logD) [13]: 1.33 |
| CCC [Propane] | 0.66 | 0.00 | 0.00 | 0.31 | 0.04 | 2.43 | 0.16 | 2.06 | 0.05 | 1.96 | -2.03 | 1.80 | -0.10 | 2.93 | 0.00 | 0.60 | 0.27 | 1.96 | 2.56 | 1.69 | water Arrow MD Error [1, 24]: 0.66 kcal/mol; water Arrow PIMD8 Error [1, 25]: 0.00 kcal/mol; CHEX Arrow MD Error [14]: 0.23 kcal/mol; CHEX Arrow PIMD4 Error [14]: 0.05 kcal/mol; logD Arrow MD Error [2]: 0.31; logD Arrow PIMD Error [2]: 0.04; FML error [17]: 0.50 kcal/mol; water Exp (hydration) [8, 26]: 1.96 kcal/mol; CHEX Exp (solvation) [9, 27]: -2.03 kcal/mol; logD Exp (logD) [13]: 2.93 |
| O [Water] | 0.51 | 0.17 | 0.17 | 0.31 | 0.17 | 2.29 | 1.70 | 1.60 | 2.53 | -6.30 | -0.39 | -8.00 | -4.70 | −4.33 | 0.17 | 0.26 | 0.44 | -6.30 | -6.04 | -5.86 | agreement of predicted bulk properties with experimental values ([3]; density, heat of vaporization, self-solvation, PIMD8): ≤ 3%; Hydration [8]: -6.30 kcal/mol; Density [10]: 0.997 g/cc; Hvap [10]: 10.51 kcal/mol; self-solvation [10]: -6.30 kcal/mol |
